Measured values from US20230144898A1, “INHIBITOR OF ASPARTIC ACID SYNTHESIS IN TUMOR CELLS, INHIBITOR OF SPHEROID FORMATION OF TUMOR CELLS, INHIBITOR OF TUMOR CELL METASTASIS, ACTIVITY ENHANCER OF GLYCOLYTIC INHIBITOR, AND PHARMACEUTICAL COMPOSITION FOR SUPPRESSING AND/OR PREVENTING TUMOR METASTASIS” (CCI HOLDINGS INC., priority 2020, published 2023).
Values joined by “and” are separate entries in the source; they are usually repeats but may differ in a detail not shown here. Equal entries are not always repeated. “Also recorded” adds a separate entry of the source.

Columns and labels:
B16F10 cells [1] = assay: Influence on anticancer action of 2-DG, cell viability (Test Example 3); format: cell-based, mouse; conditions: neopetasin 0.3 µM or 3 µM with 2-DG, 36 hours
Procedure: Specifically, to start with, B16F10 cells were seeded in a six-well plate in an amount of 0.5×10^5 cells/mL. Next, after 24 hours starting from seeding, 2-DG (concentration changed from 3 mM to 3 nM) was added and simultaneously treated with neopetasin at a concentration of 0.3 µM or 3 µM. Then, after 36 hours starting from this treatment, the cell viability was measured through the same method as in Test Example 1. Moreover, as a negative control section, DMSO was administered to perform the same experiment.

B16F10 cells [2] = assay: Western blotting, temporal changes of AMPK, FAK, Akt, ERK1/2 (Test Example 11); format: cell-based, mouse; conditions: 3 µM; 3, 8, 24 and 56 hours
Procedure: Specifically, for B16F10 cells treated with neopetasin (3 µM) or metformin (5000 µM) through the same method as in Test Example 1, the cells were recovered at each of 3 hours, 8 hours, 24 hours, and 56 hours after the treatment with these compounds, and the contents of various proteins were measured by Western blotting through the same method as in Test Example 10. Furthermore, DMSO was administered to the negative control section, and the same experiment was performed.

B16F10 cells [3] = assay: Spheroid formation assay (Test Example 4); format: cell-based, mouse; conditions: 0.3 µM or 3 µM; 24, 48 and 72 hours
Procedure: Specifically, B16F10 cells were seeded in an amount of 0.3×10^5 cells/mL in a 96-well plate for spheroid formation in an amount of 100 µL each. Thereupon, neopetasin at a concentration of 0.3 µM or 3 µM was added to the medium. Cells were photographed using a phase-contrast microscope after 24 hours, 48 hours and 72 hours of adding neopetasin. Moreover, as a negative control section, DMSO was administered to perform the same experiment.

[4] = tested on: B16F10 cells (mouse malignant melanoma cells); assay: Proliferation inhibition, B16F10 cells (Test Example 1); format: cell-based; conditions: B16-F10, read-out: IC50, proliferation inhibitory activity on B16F10 cells
[5] = Microscopic observation of organ tissue sections of model mice (Test Example 2); format: in vivo; conditions: heart, normal site of lung, cerebrum, kidney, liver, spleen, 50 mg/kg i.p.
Procedure: Furthermore, when the model mouse to which neopetasin or corn oil was administered was dissected in the above, sections were prepared from the tissues of each organ (heart, normal site of lung, cerebrum, kidney, liver, spleen) and were observed using a microscope. […] The results are consistent with specificity of the action of neopetasin on tumor cells in vitro as described above in Test

Compound: C=C(C)[C@H]1C[C@@]2(C)C(=CC1=O)CC[C@@H](OC(=O)/C(C)=C\C)[C@@H]2C [Neopetasin, neopetasin]
- anticancer action of 2-DG on addition of neopetasin (B16F10 cells [1]): enhanced in a concentration-dependent manner
- AMPK change (B16F10 cells [2]): changes at the earliest stage (3 hours)
- Akt and ERK (B16F10 cells [2]): inactivated
- FAK (B16F10 cells [2]): inactivated
- spheroid formation (B16F10 cells [3]): could not form spheroids
- IC50 [4]: 493 nM and 0.156 µg/mL
- histological and morphological changes / toxicity in organs [5]: no histological and morphological changes; also recorded: showed little toxicity to the liver, kidney, spleen
